According to article PMC5934486, “Pheromone Binding Protein EhipPBP1 Is Highly Enriched in the Male Antennae of the Seabuckthorn Carpenterworm and Is Binding to Sex Pheromone Components” (Frontiers in Physiology, 2018):

Key:
recombinant EhipPBP1 [1] = molecular target: T1, recombinant EhipPBP1 (Eogystia hippophaecolus, UniProt A0A1B3P5J8); assay: Binding of the fluorescent probe 1-NPN to EhipPBP1 (Scatchard analysis); conditions: Scatchard method; 2 μM EhipPBP1, 1-NPN 2–20 μM, pH 7.4; read-out: dissociation constant (K1-NPN)
Procedure: N-phenyl-1-naphthylamine (1-NPN) was selected for use as a selectively fluorescent probe to measure the affinity of ligand binding to recombinant EhipPBP1 ([Yin et al., 2012]; [Zhong et al., 2012]). Seven pheromone and analog compounds were a gift from Professor Zhang Jintong of Shanxi Agricultural University (Table 1) and were >97% pure. A fluorescence binding assay was performed on a multiscan Spectrum Molecular Device SpectraMax i3 (Thermo Scientific, Wilmington, DE, United States) with an excitation wavelength of 337 nm and recording of emission spectra between 380 and 520 nm. Parameter selection was such that the slit widths for both excitation and emission were 10 nm. Spectra were recorded using high-speed scanning. 2 μM solution of EhipPBP1 was prepared in 20 mM Tris-HCl buffer (pH 7.4), and the ligands were dissolved in chromatographically pure methanol as 1 mM stock solutions. The affinity of EhipPBP1 for the labeled probe was determined by adding aliquots of 1-NPN stock solution to give final concentrations of 2–20 μM. […] To determine dissociation constants, intensity values corresponding to maximum fluorescence emission were plotted against free ligand concentrations. Assuming that the protein was 100% active and that the stoichiometric ratio between protein and ligand was 1:1 at saturation, the bound ligand was determined from the fluorescence intensity values. […]

recombinant EhipPBP1 [2] = molecular target: T1, recombinant EhipPBP1; assay: Fluorescence competitive binding assay with 1-NPN as probe; conditions: for inhibition: 1-NPN and EhipPBP1 both at 2 μM, read-out: Highest combined rate (%); for inhibition / IC50: pH 7.4; for IC50: concentration of competitor causing 50% reduction of 1-NPN fluorescence, 1-NPN and EhipPBP1 at 2 μM
Procedure: N-phenyl-1-naphthylamine (1-NPN) was selected for use as a selectively fluorescent probe to measure the affinity of ligand binding to recombinant EhipPBP1 ([Yin et al., 2012]; [Zhong et al., 2012]). Seven pheromone and analog compounds were a gift from Professor Zhang Jintong of Shanxi Agricultural University (Table 1) and were >97% pure. A fluorescence binding assay was performed on a multiscan Spectrum Molecular Device SpectraMax i3 (Thermo Scientific, Wilmington, DE, United States) with an excitation wavelength of 337 nm and recording of emission spectra between 380 and 520 nm. Parameter selection was such that the slit widths for both excitation and emission were 10 nm. Spectra were recorded using high-speed scanning. 2 μM solution of EhipPBP1 was prepared in 20 mM Tris-HCl buffer (pH 7.4), and the ligands were dissolved in chromatographically pure methanol as 1 mM stock solutions. The affinity of EhipPBP1 for the labeled probe was determined by adding aliquots of 1-NPN stock solution to give final concentrations of 2–20 μM. […] To determine dissociation constants, intensity values corresponding to maximum fluorescence emission were plotted against free ligand concentrations. Assuming that the protein was 100% active and that the stoichiometric ratio between protein and ligand was 1:1 at saturation, the bound ligand was determined from the fluorescence intensity values. EhipPBP1 binding with every component was replicated six times. The curves were then linearized using Scatchard plots to calculate K1-NPN values. Dissociation constants of the competitors (Ki) were calculated from the corresponding IC50 values by the following equation: Ki = [IC50]/(1 + [1–NPN]/K1-NPN), where [IC50] was the concentration of a competitor that caused a 50% reduction in the fluorescence intensity, [1–NPN] represented the free concentration of 1–NPN, and K1-NPN represented the dissociation constant of the complex of protein with 1–NPN ([Campanacci et al., 2001]).

[3] = calculated Kd values in competitive binding assays with 1-NPN
[4] = calculated from IC50 by Ki = [IC50]/(1 + [1-NPN]/K1-NPN), Table 1

T1 sequence (A0A1B3P5J8 entry or part of it): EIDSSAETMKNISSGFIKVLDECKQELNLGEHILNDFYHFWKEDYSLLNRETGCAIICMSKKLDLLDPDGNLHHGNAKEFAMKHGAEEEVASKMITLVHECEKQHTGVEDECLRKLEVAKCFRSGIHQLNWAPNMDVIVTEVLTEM

SMILES: c1ccc(Nc2cccc3ccccc23)cc1 [1-NPN, N-phenyl-1-naphthylamine]
- Kd (recombinant EhipPBP1 [1]): 3700 ± 60 nM

SMILES: CCCCCCCCCC/C=C/CCOC(C)=O [E3-14:Ac, (E)-3-tetradecenyl acetate]
- inhibition (recombinant EhipPBP1 [2]; competitor 2–20 μM): 89.4%
- Kd (recombinant EhipPBP1 [2]; [3]): 1580 ± 210 nM
- Kd (recombinant EhipPBP1 [2]; [4]): 1570 ± 210 nM
- IC50 (recombinant EhipPBP1 [2]): 2000 nM

SMILES: CCCC/C=C/CCCCCCCCOC(C)=O [E9-14:Ac]
- inhibition (recombinant EhipPBP1 [2]; competitor 2–20 μM): 53.1%
- Kd (recombinant EhipPBP1 [2]; [3]): 6300 ± 520 nM
- Kd (recombinant EhipPBP1 [2]; [4]): 6300 ± 521 nM
- IC50 (recombinant EhipPBP1 [2]): 8000 nM

SMILES: CCCCCCCCCC/C=C\CCOC(C)=O [Z3-14:Ac]
- binding to EhipPBP1 (result in words) (recombinant EhipPBP1 [2]; competitor 2–20 μM): No binding was detected

SMILES: CCCCCCCCCCC=CCCO [Z3-14:OH]
- inhibition (recombinant EhipPBP1 [2]; competitor 2–20 μM): 56.5%
- Kd (recombinant EhipPBP1 [2]; [3]): 2360 ± 200 nM
- Kd (recombinant EhipPBP1 [2]; [4]): 2360 ± 201 nM
- IC50 (recombinant EhipPBP1 [2]): 3000 nM

SMILES: CCCCCC/C=C\CCCCCCOC(C)=O [Z7-14:Ac, (Z)-7-tetradecenyl acetate]
- inhibition (recombinant EhipPBP1 [2]; competitor 2–20 μM): 86.4%
- Kd (recombinant EhipPBP1 [2]; [3]): 1180 ± 10 nM
- Kd (recombinant EhipPBP1 [2]; [4]): 1180 ± 12 nM
- IC50 (recombinant EhipPBP1 [2]): 1500 nM

SMILES: CCCCCCC=CCCCCCCO [Z7-14:OH]
- inhibition (recombinant EhipPBP1 [2]; competitor 2–20 μM): 62.3%
- Kd (recombinant EhipPBP1 [2]; [4]): 3150 ± 321 nM
- IC50 (recombinant EhipPBP1 [2]): 4000 nM

SMILES: CCCCC=CCCCCCCCCOC(C)=O [Z9-14:Ac]
- inhibition (recombinant EhipPBP1 [2]; competitor 2–20 μM): 37.9%
- binding in the range of test concentrations (recombinant EhipPBP1 [2]; competitor 2–20 μM, Kd could not be calculated): < 50%
